Laboratory results reported in patent publication US20210290597A1, “METHOD OF TREATING A CONDITION ASSOCIATED WITH NEURODEGENERATION USING INHIBITORS OF OAT3” (Neuropore Therapies, Inc., priority 2018, published 2021).
Like-named read-outs stand apart in the source and are kept apart here.

Experiments:
[1] = biological target: T1, human transporter MATE2-K (Homo sapiens, UniProt Q86VL8); experiment: In vitro ion transport assay 1, MATE2-K; format: cell-based; conditions: probe substrate 10 μM [14C]-metformin
T1 construct: expressed in transfected cells; host or cells: MDCK-II
T1 sequence (Q86VL8 1-566 isoform Q86VL8-3): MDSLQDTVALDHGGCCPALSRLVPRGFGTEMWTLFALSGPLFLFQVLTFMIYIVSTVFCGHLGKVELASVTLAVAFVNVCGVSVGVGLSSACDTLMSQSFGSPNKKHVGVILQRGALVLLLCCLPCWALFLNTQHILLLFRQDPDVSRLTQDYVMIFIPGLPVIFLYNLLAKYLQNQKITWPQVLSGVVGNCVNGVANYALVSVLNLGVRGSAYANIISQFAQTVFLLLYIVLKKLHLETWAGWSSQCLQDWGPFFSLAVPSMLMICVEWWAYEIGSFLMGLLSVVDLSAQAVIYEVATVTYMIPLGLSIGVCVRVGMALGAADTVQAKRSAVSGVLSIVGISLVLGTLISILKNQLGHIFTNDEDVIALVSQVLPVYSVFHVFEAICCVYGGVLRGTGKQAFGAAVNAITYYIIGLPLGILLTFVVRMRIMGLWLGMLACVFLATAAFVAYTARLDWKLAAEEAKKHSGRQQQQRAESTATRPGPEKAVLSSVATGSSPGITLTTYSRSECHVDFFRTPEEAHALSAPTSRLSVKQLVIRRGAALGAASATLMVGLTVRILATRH
Protocol: (§1) Compound 1 was studied in the concentration range of 0.1-100 μM for its potency against transport mediated by various transporter proteins. [table]

[2] = biological target: T2, P-gp (MDR1) (Homo sapiens, UniProt P08183); experiment: In vitro ion transport assay 1, P-gp; format: cell-based; conditions: probe substrate 100 nM [3H]-quinidine
T2 construct: expressed in transfected cells
T2 sequence (P08183 whole entry, species assumed): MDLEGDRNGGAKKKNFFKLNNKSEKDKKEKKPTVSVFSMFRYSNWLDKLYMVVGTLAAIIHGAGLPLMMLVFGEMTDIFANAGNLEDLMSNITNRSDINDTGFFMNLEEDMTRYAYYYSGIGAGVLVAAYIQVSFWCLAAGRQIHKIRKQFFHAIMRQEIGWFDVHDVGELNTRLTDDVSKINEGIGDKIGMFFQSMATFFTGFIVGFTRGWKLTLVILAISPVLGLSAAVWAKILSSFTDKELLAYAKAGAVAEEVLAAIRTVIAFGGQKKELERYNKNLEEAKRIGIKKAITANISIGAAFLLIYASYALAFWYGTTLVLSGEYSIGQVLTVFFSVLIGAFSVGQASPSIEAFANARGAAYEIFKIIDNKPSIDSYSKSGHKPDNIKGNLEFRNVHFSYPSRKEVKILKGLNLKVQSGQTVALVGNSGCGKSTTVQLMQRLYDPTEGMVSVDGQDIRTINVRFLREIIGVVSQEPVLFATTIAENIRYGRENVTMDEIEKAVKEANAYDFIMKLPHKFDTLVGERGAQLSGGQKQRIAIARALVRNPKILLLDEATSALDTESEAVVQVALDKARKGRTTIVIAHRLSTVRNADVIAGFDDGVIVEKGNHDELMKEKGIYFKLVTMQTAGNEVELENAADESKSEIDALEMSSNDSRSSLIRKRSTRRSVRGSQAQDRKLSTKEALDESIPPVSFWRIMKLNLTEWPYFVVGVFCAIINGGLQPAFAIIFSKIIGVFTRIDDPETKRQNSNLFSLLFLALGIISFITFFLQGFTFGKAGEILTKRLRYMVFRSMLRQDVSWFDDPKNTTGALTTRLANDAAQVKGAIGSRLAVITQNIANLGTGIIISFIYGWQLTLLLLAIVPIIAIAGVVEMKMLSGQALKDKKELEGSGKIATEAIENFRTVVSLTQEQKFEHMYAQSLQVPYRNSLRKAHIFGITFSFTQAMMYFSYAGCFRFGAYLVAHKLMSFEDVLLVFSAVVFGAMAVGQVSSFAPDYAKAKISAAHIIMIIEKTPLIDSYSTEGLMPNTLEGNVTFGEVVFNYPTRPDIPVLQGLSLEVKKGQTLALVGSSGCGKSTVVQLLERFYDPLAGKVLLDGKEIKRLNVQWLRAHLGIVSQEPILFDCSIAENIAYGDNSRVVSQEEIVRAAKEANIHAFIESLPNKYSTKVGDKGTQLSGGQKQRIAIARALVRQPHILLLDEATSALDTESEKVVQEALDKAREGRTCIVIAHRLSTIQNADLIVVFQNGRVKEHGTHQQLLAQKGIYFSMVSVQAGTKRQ
Protocol: as §1

[3] = biological target: T3, human transporter OAT3 (Homo sapiens, UniProt Q8TCC7); experiment: In vitro transport assay 2, OAT3; format: cell-based
T3 construct: expressed in transfected cells; host or cells: MDCK-II
T3 sequence (Q8TCC7 1-542): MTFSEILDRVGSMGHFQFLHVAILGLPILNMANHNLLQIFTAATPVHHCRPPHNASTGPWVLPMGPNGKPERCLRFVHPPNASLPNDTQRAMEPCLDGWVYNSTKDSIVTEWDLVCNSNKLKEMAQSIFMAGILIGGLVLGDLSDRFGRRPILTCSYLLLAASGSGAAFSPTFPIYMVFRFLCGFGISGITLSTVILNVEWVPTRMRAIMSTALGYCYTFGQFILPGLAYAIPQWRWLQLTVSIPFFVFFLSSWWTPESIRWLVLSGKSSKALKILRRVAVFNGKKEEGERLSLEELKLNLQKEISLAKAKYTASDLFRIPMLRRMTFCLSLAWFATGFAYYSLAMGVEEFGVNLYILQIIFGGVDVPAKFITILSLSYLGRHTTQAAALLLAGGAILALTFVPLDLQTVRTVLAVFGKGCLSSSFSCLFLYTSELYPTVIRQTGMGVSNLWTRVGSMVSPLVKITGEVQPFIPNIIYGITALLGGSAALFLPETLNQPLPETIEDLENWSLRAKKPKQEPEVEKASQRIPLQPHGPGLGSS
Protocol: (§2) Compound 1 was studied in the concentration range of 0.1-10 μM for its potency against transport mediated by various transporter proteins.

[4] = biological target: T4, human transporter URAT1 (Homo sapiens, UniProt Q96S37); experiment: In vitro transport assay 2, URAT1; format: cell-based; conditions: 20 μM [14C]-uric acid
T4 construct: expressed in transfected cells; host or cells: MDCK-II
T4 sequence (Q96S37 1-553): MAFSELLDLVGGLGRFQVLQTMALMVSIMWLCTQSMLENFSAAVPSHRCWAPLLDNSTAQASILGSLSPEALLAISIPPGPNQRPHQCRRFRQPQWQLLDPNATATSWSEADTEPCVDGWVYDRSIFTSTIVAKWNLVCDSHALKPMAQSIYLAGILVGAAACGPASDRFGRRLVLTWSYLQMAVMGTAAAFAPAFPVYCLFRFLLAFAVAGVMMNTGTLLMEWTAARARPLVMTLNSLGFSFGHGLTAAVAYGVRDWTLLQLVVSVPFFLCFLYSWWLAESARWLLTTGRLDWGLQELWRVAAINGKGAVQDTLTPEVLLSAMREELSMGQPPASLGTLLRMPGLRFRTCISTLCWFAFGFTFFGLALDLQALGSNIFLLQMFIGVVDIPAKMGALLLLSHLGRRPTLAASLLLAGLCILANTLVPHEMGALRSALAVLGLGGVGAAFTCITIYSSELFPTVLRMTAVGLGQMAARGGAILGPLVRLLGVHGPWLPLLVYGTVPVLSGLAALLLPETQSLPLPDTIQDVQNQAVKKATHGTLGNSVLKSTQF
Protocol: as §2

[5] = test system: L61 ASYN transgenic mice; experiment: Grip strength, L61 ASYN transgenic mice, 3 month study; format: in vivo; conditions: 5 mg/kg and 10 mg/kg i.p. daily, after 70 days of treatment
Protocol: The effects of Compound 1 on the motor performance deficits (grip strength) and a marker of neuroinflammation (Translocator Protein (18 kDa)) were assessed in both L61 ASYN transgenic and non-transgenic mice in a 3 month administration study.
Briefly, Compound 1 was injected into L61 ASYN transgenic mice and non-transgenic control mice (i.p., once daily) at doses of 5 and 10 mg/kg for 3 months (79 total mice, n=14-17 mice per treatment group). The vehicle control consisted of a solution containing 5% DMSO+20% Cremphor EL+0.9% normal saline. The baseline grip strength of mice was evaluated prior to starting treatments for the 3 month study, and then re-evaluated following 70 days of treatment with vehicle or Compound 1 (5 or 10 mg/kg, i.p. injection daily).

[6] = test system: amyloid beta; experiment: Amyloid beta staining (6E10), L41 APP transgenic mice; format: in vivo; conditions: 5 mg/kg daily i.p.
Protocol: As described earlier, Line 41 transgenic mice express high levels of the mutant hAPP751 and develop mature plaques in the cortex, hippocampus, thalamus and olfactory region of mouse brain. The effects of Compound 1 on Amyloid beta plaque formation were assessed in both L41 APP transgenic and non-transgenic mice in a 1 month administration study. After 30 days, the mice were sacrificed, and immunofluorescence (IF) detection of amyloid beta were assessed in the harvested brain tissues.
The harvested brain tissues were drop fixed using 4% PFA and sectioned on a vibratome, and representative sections containing the neuropil of cortex, hippocampus and striatum were assessed for amyloid beta with standard IHC staining.
On approximately day 30, all subjects were euthanized within 2 hours of the last treatment and brain and other samples were collected. Brains were removed and divided sagitally. […]
Prepared slides were imaged at 40× using a high-resolution Hamamatsu Nanozoomer™ scanner located in the Microscopy Core in the UCSD Department of Neurosciences. Digital images were then transferred to Neuropore and analyzed using the Halo® imaging software package (Indica Labs, Corrales, N. Mex.). […] Images were evaluated for specimen and imaging problems and any issues were noted prior to unblinding of samples and statistical analyses.

IC50 [1]: 75.8 µM
IC50 [2]: 37.1 µM
IC50 ([3]; 100 nM [3H]-estrone-3-sulfate, read-out: IC50, OAT3 (Substrate: E3S)): 891 nM
IC50 ([3]; 10 μM [3H]-p-aminohippurate, read-out: IC50, OAT3 (Substrate: PAH)): 252 nM
IC50 [4]: > 10 µM
Compound: O=S(=O)(c1ccc(-n2cn[nH]c2=S)cc1)c1ccc(Cl)c(C(F)(F)F)c1 [Compound 1, 4-(4-((4-chloro-3-(trifluoromethyl)phenyl)sulfonyl)phenyl)-2,4-dihydro-3H-1,2,4-triazole-3-thione]
grip strength vs vehicle-treated transgenic mice [5]: higher grip strengths
amyloid beta level vs vehicle-treated Line 41 mice [6]: reduces the amyloid beta level in a statistically significant manner
